Measurements: US20190086390A1, “INDIRECT ASSESSMENT OF INSULIN RELEASE IN A CELL” (Board of Supervisors of Louisiana State University and …, priority 2016, published 2019)
“And” between values parts separate entries of the source, which are not always exact repeats. Equal values may be shown once. “Also recorded” adds a separate entry of the source.

Columns and labels:
Type in all cases: cell-based, rat
832/13 cells = test: Glucose-stimulated insulin secretion (GSIS) in 832/13 cells, insulin ELISA; conditions: for decrease in GSIS: 1 ng/ml IL-1β
Protocol: 832/13 cells were grown in 12-well plates and treated as indicated. Glucose-stimulated insulin secretion (GSIS) assays were performed as described previously (29). Insulin secretion by cell lines into the media was measured using either the High Range Rat Insulin ELISA kit (Mercodia, Uppsala, Sweden) or by rat islets using the insulin radioimmunoassay (Siemens, Malvern, Pa.) according to the company directions. In addition, cells were lysed using M-PER lysis reagent (Thermo Fisher Scientific) to quantify total intracellular protein content via BCA assay (Thermo Fisher Scientific). Insulin secretion data were normalized to total protein to account for any differences in cell number between treatment groups. Incorporation of tritiated thymidine into DNA as a cellular index of proliferation was carried out as described (45).

CCL2 = CCL2 secretion into media of 832/13 cells, ELISA
Protocol: (§1) 832/13 cells were grown in 12-well plates and treated as indicated. RPMI was supplemented with 0.3% BSA, and media were collected at the indicated time points. In addition, the cells were lysed using M-PER lysis reagent (Thermo Fisher Scientific) to quantify total intracellular protein content. CCL2 and CCL20 secretion into the media was measured by CCL2 Quantikine ELISA kit (R & D Systems, Minneapolis, Minn.) and CCL20 DuoSet ELISA kit (R & D Systems) according to the manufacturer's protocol. ELISA data were normalized to total protein to account for any differences in cell number between treatment groups.

CCL20 = CCL20 secretion into media of 832/13 cells, ELISA; conditions: glucose 2, 4, 8 or 16 mM; IL-1β 6 h
Protocol: as §1

iNOS = iNOS mRNA (RT-PCR) and protein (immunoblot) abundance in 832/13 cells; conditions: 832/13 cells exposed to IL-1β
Source text: RNA isolation from cell lines and rat islets, cDNA synthesis, and analysis of real-time RT-PCR data has been described in detail previously (12). For all transcripts studied, the relative mRNA abundance was normalized to that of the housekeeping gene ribosomal S9. Primers used to detect transcript levels of ribosomal S9, iNOS, IL-1, and Nkx6.1 were designed using Primer3Plus software and are available upon request.
Cell lysis and extraction of cytoplasmic and nuclear protein fractions was performed using the NE-PER kit (Thermo Fisher Scientific) according to the manufacturer's directions. The protein concentration of the lysate was determined using the bicinchoninic acid assay (Thermo Fisher Scientific), using BSA as the standard. SDS-PAGE, transfer to polyvi-nylidene difluoride membranes, membrane blocking before antibody incubation, and downstream subsequent detection using a ChemiDoc imaging system (Bio-Rad) have been described previously (16). Antibodies detecting β-actin or tubulin were used as loading controls. Antibodies used were from the following sources: iNOS (Santa Cruz Biotechnology), (3-actin (Cell Signaling Technology), Ikα: (Santa Cruz Biotechnology), tubulin (Cell Signaling Technology), and Pdx-1 (Cell Signaling Technology). The antibody recognizing Nkx6.1 has been described (34). Immunoblot images were quantified using Image Lab software (Bio-Rad).

832/13 and 833/15 cells = test: Mitochondrial/nuclear DNA ratio analysis; conditions: 6 or 18 h
Protocol: Genomic DNA was isolated using a DNeasy kit from Qiagen (Valencia, Calif.) per the manufacturer's protocol and quantified via quantitative PCR using iTaq Universal SYBR Green Supermix (Bio-Rad). Mitochondrial number was determined as the expression of genes encoded by mitochondrial DNA (COI and ATP6) relative to nuclear genes (NDUFA and SDHA) using the AACT method. This methodology has been described previously (24).

[1] = system: voltage-gated Ca^2+ channels; test: Whole cell voltage clamp recordings; conditions: n=25; for cell size (whole cell capacitance) vs control: IL-1β pretreatment
Source text: Cell culture dishes were mounted on the stage of an Olympus K70 inverted microscope. A reference Ag/AgCl pellet served to ground the bath. Patch electrodes were pulled from thick-walled borosilicate glass with a filament (outer diameter 1.5 mm; inner diameter: 0.86 mm; Sutter Instruments, Novato, Calif.) using a Haming-Brown Micropipette Puller (Sutter Instruments). Electrode resistance values ranged from 4 to 7 Mfl. Ruptured patch, whole cell voltage clamp recordings were made using an Axopatch ID-patch clamp amplifier (Molecular Devices, Sunnyvale, Calif.). Data were recorded using pClamp 10.0 software (Molecular Devices). Unless otherwise indicated, all reagents were purchased from Sigma-Aldrich (St. Louis, Mo.). External solutions consisted of the following (in mM): 116.7 NaCl, 20.0 TEAC1, 3.0 CaCl2, 0.4 MgCl2, 4.0 glucose, and 10.0 HEPES. Voltage clamp experiments were performed in the ruptured patch configuration using the following internal solution (in mM): 100.00 CsAc, 10.0 CsCl, 2.0 MgCl2, 0.1 CaCl2, and 10.0 HEPES. Also included was an ATP regeneration system to preserve Ca^2+ currents [3.0 ATP (dipotassium), 1.0 ATP (disodium), 20.0 phosphocreatine, 2.0 GTP, and 50 U/ml creatine phos-phokinase]. Cesium was used as a substitute for K^+ to minimize currents through voltage-gated K^+ channels. Tetrodotoxin (300 nM; Alomone Laboratories, Jerusalem, Israel) was included in the external solution to block voltage-gated Na^+ currents. The liquid junction potential error for these solutions was estimated to be −13 mV (pClamp). Solutions were adjusted to pH 7.4 with NaOH for external solutions and with CsOH for internal solutions. A pressurized gravity flow perfusion system (1.5-2 mi/min) was used to deliver the external solutions (AutoMate Scientific, Berkeley, Calif.).

IL-1β: proinflammatory cytokine purchased from Thermo Fisher Scientific, used at 1 ng/ml
decrease in GSIS (832/13 cells; 6 h): 40% and 36% | decrease in GSIS (832/13 cells; 12 h): 59% | time by which insulin secretion began to decrease (832/13 cells; IL-1β): ≤ 6 h | diminution in GSIS (832/13 cells; IL-1β, associated with 13-fold increase in nitrite, time not given): 54% | expression and secretion of CCL2 in response to IL-1β (CCL2; 832/13 cells, 1 ng/ml IL-1β): markedly elevated; also recorded: strongly induced | time to chemokine secretion after cellular exposure (CCL2; IL-1β): 3 to 6 h | IL-1β-induced secretion of CCL2 over a range of glucose concentrations (CCL2; glucose 2, 4, 8 or 16 mM, IL-1β 6 h): not different | IL-1β-induced secretion of CCL20 over a range of glucose concentrations (CCL20): not different | iNOS expression (transcript and protein) (iNOS): rapidly induced; also recorded: accumulates; also recorded: robust iNOS abundance | mitochondrial/nuclear DNA ratios (832/13 and 833/15 cells): did not detect any alterations | cell size (whole cell capacitance) vs control [1]: no effect on cell size | cell size (whole cell capacitance) vs control ([1]; listed as IL-I1β): not significantly different | voltage-gated Ca^2+ current density vs control ([1]; IL-1β-treated 832/13 cells, step to −3 mV): not significantly different; also recorded: No significant difference
